The source made the active and inactive calls. The rule behind the calls is not given here. Bounds are passed on as bounds.

What is called IC50 is the concentration that inhibits the measured activity by half. The low end stands for greater potency in that assay, the high end for weaker potency in that assay.

One data set deals with T1, Androgen receptor (Homo sapiens, UniProt P10275).
T1 sequence (P10275 whole entry): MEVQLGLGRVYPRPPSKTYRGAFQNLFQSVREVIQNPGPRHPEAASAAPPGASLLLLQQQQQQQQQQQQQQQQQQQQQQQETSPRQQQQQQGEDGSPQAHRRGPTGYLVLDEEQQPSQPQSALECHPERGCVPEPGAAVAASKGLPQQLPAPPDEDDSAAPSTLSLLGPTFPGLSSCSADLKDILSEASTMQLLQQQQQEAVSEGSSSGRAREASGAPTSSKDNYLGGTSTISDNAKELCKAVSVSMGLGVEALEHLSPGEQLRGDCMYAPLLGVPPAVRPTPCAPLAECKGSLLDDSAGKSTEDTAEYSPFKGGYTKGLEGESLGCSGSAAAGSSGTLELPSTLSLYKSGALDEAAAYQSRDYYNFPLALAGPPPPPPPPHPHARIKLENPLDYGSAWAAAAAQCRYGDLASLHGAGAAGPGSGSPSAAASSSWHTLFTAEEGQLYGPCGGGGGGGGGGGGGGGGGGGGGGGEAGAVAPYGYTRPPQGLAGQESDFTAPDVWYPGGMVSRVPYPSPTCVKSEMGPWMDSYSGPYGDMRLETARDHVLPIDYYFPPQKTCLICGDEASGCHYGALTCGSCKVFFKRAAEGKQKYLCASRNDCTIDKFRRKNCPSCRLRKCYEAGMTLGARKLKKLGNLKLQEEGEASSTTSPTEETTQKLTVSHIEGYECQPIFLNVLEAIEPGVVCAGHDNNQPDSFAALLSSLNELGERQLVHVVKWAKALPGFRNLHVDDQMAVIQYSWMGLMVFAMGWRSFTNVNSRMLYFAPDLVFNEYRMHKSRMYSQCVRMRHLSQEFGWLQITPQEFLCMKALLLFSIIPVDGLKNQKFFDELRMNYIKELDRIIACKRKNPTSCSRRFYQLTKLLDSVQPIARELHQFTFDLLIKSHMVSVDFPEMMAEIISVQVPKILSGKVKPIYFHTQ
The data set is described as follows: Anti-androgenic activity at androgen receptor (unknown origin) expressed in HEK293 cells by BRET assay. The data set is classed as cell-based. Background: Bioluminescence resonance energy transfer reports proximity on the nanometre scale.

Data set [1] has as its target T2, Histone deacetylase 1 (Homo sapiens, UniProt Q13547). The data set is described as follows: Inhibition of purified human HDAC1 using Ac-Leu-Gly-(e-Ac)Lys-AMC by fluorometric HDAC assay.
In data set [2] the target is Class 1 histone deacetylase (Homo sapiens) (UniProt Q13547+O15379+Q92769+Q9BY41). The data set is described as follows: Inhibition of type I nuclear HDACs in human LNCaP cells assessed as induction of histone H3 and H4 acetylation at 10 uM by Western blotting. The data set is classed as cell-based.
Sequence of Class 1 histone deacetylase (Homo sapiens) (O15379 whole entry, looked up): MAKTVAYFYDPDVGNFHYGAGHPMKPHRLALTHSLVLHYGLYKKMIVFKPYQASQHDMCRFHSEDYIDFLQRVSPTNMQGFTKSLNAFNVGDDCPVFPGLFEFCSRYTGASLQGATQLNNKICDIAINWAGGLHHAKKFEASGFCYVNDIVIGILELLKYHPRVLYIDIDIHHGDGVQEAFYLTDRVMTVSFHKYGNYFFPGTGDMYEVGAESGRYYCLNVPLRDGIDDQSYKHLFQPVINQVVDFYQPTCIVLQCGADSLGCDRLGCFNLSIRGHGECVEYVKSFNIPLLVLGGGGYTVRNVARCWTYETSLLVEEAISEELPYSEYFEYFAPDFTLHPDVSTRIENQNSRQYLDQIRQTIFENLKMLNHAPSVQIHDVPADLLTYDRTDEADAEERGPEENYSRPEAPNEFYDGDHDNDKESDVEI
Sequence of Class 1 histone deacetylase (Homo sapiens) (Q13547 whole entry, looked up): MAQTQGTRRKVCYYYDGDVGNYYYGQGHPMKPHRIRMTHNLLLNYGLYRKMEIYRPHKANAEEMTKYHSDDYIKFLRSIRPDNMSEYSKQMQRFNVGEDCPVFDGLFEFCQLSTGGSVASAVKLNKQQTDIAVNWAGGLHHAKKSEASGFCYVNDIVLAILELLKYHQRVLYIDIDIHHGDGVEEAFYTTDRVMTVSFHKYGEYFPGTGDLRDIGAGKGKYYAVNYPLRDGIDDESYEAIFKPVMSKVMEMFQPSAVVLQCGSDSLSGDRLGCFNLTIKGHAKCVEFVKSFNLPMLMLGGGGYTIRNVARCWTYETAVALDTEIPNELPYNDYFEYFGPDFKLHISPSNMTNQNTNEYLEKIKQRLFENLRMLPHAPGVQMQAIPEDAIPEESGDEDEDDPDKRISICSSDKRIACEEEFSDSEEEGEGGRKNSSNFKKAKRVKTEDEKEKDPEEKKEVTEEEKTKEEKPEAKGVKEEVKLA
Sequence of Class 1 histone deacetylase (Homo sapiens) (Q92769 whole entry, looked up): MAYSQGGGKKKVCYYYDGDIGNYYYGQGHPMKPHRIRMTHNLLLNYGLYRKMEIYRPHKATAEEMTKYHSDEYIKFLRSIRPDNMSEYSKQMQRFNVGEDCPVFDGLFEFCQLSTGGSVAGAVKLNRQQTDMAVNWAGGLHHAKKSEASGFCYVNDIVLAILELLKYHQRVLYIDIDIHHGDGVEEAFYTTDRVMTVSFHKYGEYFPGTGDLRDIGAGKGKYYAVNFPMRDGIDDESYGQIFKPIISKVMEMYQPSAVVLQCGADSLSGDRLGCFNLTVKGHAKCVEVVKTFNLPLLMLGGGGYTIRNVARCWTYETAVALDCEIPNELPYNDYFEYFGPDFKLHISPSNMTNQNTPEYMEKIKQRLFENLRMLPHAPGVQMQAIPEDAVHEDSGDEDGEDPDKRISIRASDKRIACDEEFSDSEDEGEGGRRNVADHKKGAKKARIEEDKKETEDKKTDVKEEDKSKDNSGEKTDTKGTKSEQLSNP
Sequence of Class 1 histone deacetylase (Homo sapiens) (Q9BY41 whole entry, looked up): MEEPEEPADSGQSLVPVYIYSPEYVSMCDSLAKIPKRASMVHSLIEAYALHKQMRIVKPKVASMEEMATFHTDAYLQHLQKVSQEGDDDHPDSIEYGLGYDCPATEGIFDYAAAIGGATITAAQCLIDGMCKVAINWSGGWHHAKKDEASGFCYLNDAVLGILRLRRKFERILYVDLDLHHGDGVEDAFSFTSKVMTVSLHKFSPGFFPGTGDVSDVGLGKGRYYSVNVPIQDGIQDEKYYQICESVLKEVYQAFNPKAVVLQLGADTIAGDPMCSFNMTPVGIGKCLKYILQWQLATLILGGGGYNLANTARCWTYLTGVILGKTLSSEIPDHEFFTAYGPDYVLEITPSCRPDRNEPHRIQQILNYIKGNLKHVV
Data set [3] relates to LNCaP. The data set is described as follows: Antiproliferative activity against human LNCAP cells assessed as reduction in cell viability at 10 uM incubated for 5 days. Format: functional, cell-based. Particulars: time 5.0 day.
For data set [4], the system named is LNCaP. Kind of data set: Antiproliferative activity against human LNCAP cells assessed as reduction in cell viability at 100 uM incubated for 5 days. Format: functional, cell-based. To be noted: time 5.0 day.
The subject of data set [5] is LNCaP. Kind of data set: Antiproliferative activity against human LNCAP cells assessed as reduction in cell viability at 100 uM incubated for 72 hrs. The data set is classed as functional, cell-based.
The test system of data set [6] is LNCaP. Kind of data set: Antiproliferative activity against human LNCAP cells assessed as reduction in cell viability at 10 uM incubated for 72 hrs. The data set is classed as functional, cell-based.
For a further data set, the system named is PC-3. Kind of data set: Antiproliferative activity against human PC-3 cells assessed as reduction in cell viability at 1 to 100 uM incubated for 72 hrs. The data set is classed as functional, cell-based. To be noted: dose 1-100 µM.
For another data set, the system named is BPH-1. Kind of data set: Antiproliferative activity against human BPH-1 cells assessed as reduction in cell viability at 1 to 100 uM incubated for 72 hrs. Format: functional, cell-based. To be noted: dose 1-100 µM.
Data set [7] in a line: Antiproliferative activity against human BHPrS cells assessed as reduction in cell viability at 1 to 100 uM incubated for 72 hrs. The data set is classed as toxicity, cell-based. To be noted: dose 1-100 µM.
The nature of data set [8]: Inhibition of purified human HDAC2 using Ac-Leu-Gly-(e-Ac)Lys-AMC by fluorometric HDAC assay.
Data set [9] addresses T2, Histone deacetylase 1. Kind of data set: Inhibition of purified human HDAC1 using Ac-Leu-Gly-(e-Ac)Lys-AMC pre-incubated for 18 hrs by fluorometric HDAC assay.

T2 sequence (Q13547 whole entry): as the sequence (Q13547 whole entry, looked up) above

For `CC1(C)C(=O)N(c2ccc(C#N)c(C(F)(F)F)c2)C(=S)N1c1ccc(C(=O)Nc2ccccc2N)cc1`, the values for the IC50 against Androgen receptor and at Histone deacetylase 1 [1] were 0.98 µM and 1.33 µM, respectively. For the same compound, the inhibition entry in data set [2] is “Active”. Besides, the outcome in the data set with LNCaP [3], in the data set on LNCaP [4], in the data set with LNCaP [5], with LNCaP [6], in the data set on PC-3 and in the data set with BPH-1 was Active. In data set [7], the Activity result is listed as “Non-Toxic”.
As to `CC1(C)C(=O)N(c2ccc(C#N)c(C(F)(F)F)c2)C(=S)N1C12CC(CC(=O)Nc3ccccc3N)(C1)C2`, the IC50 at Androgen receptor was 0.19 µM; against Histone deacetylase 1 [1], > 1000 µM.
In the case of `CC1(C)C(=O)N(c2ccc(C#N)c(C(F)(F)F)c2)C(=S)N1c1ccc(C(=O)Nc2ccccc2N)c(F)c1`, the IC50 stood at 1.7 µM against Androgen receptor, 2.86 µM at Histone deacetylase 1 [1] and 2.5 µM in [8].
On to `CC1(C)C(=O)N(c2ccc(C#N)c(C(F)(F)F)c2)C(=S)N1c1ccc(C(=O)Nc2cc(-c3cccs3)ccc2N)nc1`, for which the IC50 was > 10 µM on Androgen receptor and 3.67 µM on Histone deacetylase 1 [1].
With `CC1(C)C(=O)N(c2ccc(C#N)c(C(F)(F)F)c2)C(=S)N1c1ccc(C(=O)Nc2ccccc2N)nc1`, the IC50 on Androgen receptor was determined as 0.75 µM; against Histone deacetylase 1 [1] it was 5.58 µM.
With `CC1(C)C(=O)N(c2ccc(C#N)c(C(F)(F)F)c2)C(=S)N1CCCCCCC(=O)NO`, the values for the IC50 against Androgen receptor and against Histone deacetylase 1 [1] were 0.39 µM and 0.99 µM, respectively. Further, the result in the data set with LNCaP [4] was Active.
As for `CC1(C)C(=O)N(c2ccc(C#N)c(C(F)(F)F)c2)C(=S)N1CCCC(=O)NO`, the IC50 on Androgen receptor was 0.39 µM; on Histone deacetylase 1 [1], 44.9 µM. Also, in the data set on LNCaP [4], the outcome was Active.
Take `CC1(C)C(=O)N(c2ccc(C#N)c(C(F)(F)F)c2)C(=S)N1c1ccc(C(=O)Nc2ccccc2N)cn1`: the IC50 turned out to be 2.34 µM against Androgen receptor and 6.51 µM at Histone deacetylase 1 [1].
Consider `CC1(C)C(=O)N(c2ccc(C#N)c(C(F)(F)F)c2)C(=S)N1c1ccc(C(=O)Nc2cc(-c3ccccc3)ccc2N)cc1`, for which the half-maximal inhibitory concentration (IC50) against Androgen receptor is > 10 µM; against Histone deacetylase 1 [9], 5.96 µM.
In the case of `CC1(C)C(=O)N(c2ccc(C#N)c(C(F)(F)F)c2)C(=S)N1Cc1ccc(C(=O)Nc2ccccc2N)cc1`, the 50% inhibitory concentration (IC50) is 0.28 µM against Androgen receptor, 1.04 µM at Histone deacetylase 1 [1] and 1.6 µM in data set [8]. The outcome with LNCaP [5], in the data set on LNCaP [6], with PC-3 and in the data set on BPH-1 was Active. Also, the Activity entry in [7] was “Non-Toxic”.
As to `Nc1ccccc1NC(=O)c1ccc(CNC(=O)OCc2cccnc2)cc1` [ENTINOSTAT], the concentration for half-maximal inhibition (IC50) on Androgen receptor is > 10 µM. In the data set with LNCaP [4], the result was Active.
Take `CC1(C)C(=O)N(c2ccc(C#N)c(C(F)(F)F)c2)C(=S)N1CCCCCC(=O)NO`: the 50% inhibitory concentration (IC50) against Androgen receptor was found to be 1.45 µM; at Histone deacetylase 1 [1], 1.33 µM. The result in the data set on LNCaP [4] was Active.
As to `CC1(C)C(=O)N(c2ccc(C#N)c(C(F)(F)F)c2)C(=S)N1c1ccc(C(=O)Nc2cc(-c3cccs3)ccc2N)cn1`, the IC50 is > 10 µM on Androgen receptor and 11.1 µM on Histone deacetylase 1 [1].
Take `CC1(C)C(=O)N(c2ccc(C#N)c(C(F)(F)F)c2)C(=S)N1c1ccc(C(=O)Nc2cc(-c3ccccc3)ccc2N)cn1`: the concentration for half-maximal inhibition (IC50) was > 10 µM against Androgen receptor and 2.39 µM against Histone deacetylase 1 [1].
In the same order, the values of `CC1(C)C(=O)N(c2ccc(C#N)c(C(F)(F)F)c2)C(=S)N1c1ccc(C(=O)Nc2cc(-c3ccccc3)ccc2N)nc1` are > 10 µM and > 1000 µM.
With `CC1(C)C(=O)N(c2ccc(C#N)c(C(F)(F)F)c2)C(=S)N1CCCCC(=O)NO`, the half-maximal inhibitory concentration (IC50) against Androgen receptor worked out at 1.17 µM; against Histone deacetylase 1 [1] it was 3.09 µM. Further, the outcome in the data set with LNCaP [4] was Active.

The values above are taken from ChEMBL document CHEMBL5143530 (Bioorg Med Chem Lett, 2022).
